One experiment has as its target T1, plectin (Homo sapiens, UniProt Q15149).
T1 construct: endogenous in cells; host or cells: H358, H1693, H1975, H1993 cells
Description: Magnetic-bead binding assay with plectin antibody competition or plectin siRNA knockdown. As to the method:
Unsorted H358 cells were plated on a 6-well plate and grown to 80% confluence. For each well, 9 μL of Lipofectamine RNAiMAX (Thermo Fisher) was mixed with 3 μL of 10 μM siRNA, either silencer select s10644 plectin or silencer select negative control 1 (Thermo Fisher), in serum-free RPMI and incubated for 5 minutes. The mixture was then added to the well and incubated for 1 to 4 days before testing. Magnetic binding assays were performed on harvested cells as described above for binding evaluation.
Plectin expression was directed tested on PCS2-bound cells from H358, HCC4017, H460, H1299, H2073, H1693, H1993, H1975 cells by RT-QPCR (FIG. 22A). […] To determine if PCS2 and the plectin antibody compete for binding, the magnetic-bead binding assay was repeated in the presence of the plectin antibody. […] Since previous reports have shown cells to be sufficiently stable for further assays with plectin knock-down, plectin knockdown was conducted in H358, H1693, H1975 and H1993 cells using siRNA using the magnetic-bead binding assay described above. […] From these observations, it was concluded that plectin is the cell-surface marker that PCS2 is targeting.

Another experiment concerns H358 cells. Description: Magnetic-bead pull-down assay. In kind it is cell-based. As to the method:
On-bead binding assay: 50 mg of peptoid-carrying tentagel beads or 1.3×10^6 of peptoid-carrying magnetic beads were equilibrated in 2 mL RPMI containing 5% FBS and 3% BSA (Sigma) for 1 hour by shaking. The beads can then be equilibrated with 5×10^6 of each cancer cell type listed above in 2 mL RPMI containing 5% FBS and 1% BSA at room temperature for 15-60 minutes for binding. The cell-bound beads are then pulled down with a magnet and washed with RPMI to cleanly harvest bound cells. Unbound cells were collected separately for further confirmations.
To confirm the binding specificity of PCS2 to CSCs, CSCs isolated from H358 cells and normal mesenchymal stem cells (MSCs) were exposed to PCS2-carrying beads as described in Example 3, and then separated by magnet into peptoid-bound and peptoid-unbound fractions (FIG. 19A). […] RNA from both bound and unbound fractions was harvested and analyzed by RT-qPCR to determine the relative expression of several known CSC biomarkers in each fraction was assessed, including expression of ALDH1A3 (FIG. 19B), CD133 (FIG. 19C), CD44 (FIG. 19D), and SOX2 (FIG. 19E). […]
To further evaluate this plectin-CSC connection, it was confirmed that CSCs can be isolated through cell surface plectin via a PCS2-independent approach. […] Next the mRNA levels of two known CSC biomarkers was analyzed on these cell groups by RT-QPCR, along with plectin (PLEC). […]

Numbered stars: 1 amine (or outer) side, 2 acyl side, 3 side chain; on linkers, the order of the positions; unused ones are H or OH. Square brackets hold non-standard residues; d marks the D form. Peptide text beside a SMILES is read from it. ξ: configuration not given here. Gly(N-piperonyl) = O=C(O)CNCc1ccc2c(c1)OCO2; X1 = CC(c1ccccc1)N(CC(=O)[*:2])[*:1]; Nlys = NCCCCNCC(=O)O; ξK = NCCCCC(N)C(=O)O; ξM = CSCCC(N)C(=O)O; Nme = COCCNCC(=O)O

T1 sequence (Q15149 whole entry): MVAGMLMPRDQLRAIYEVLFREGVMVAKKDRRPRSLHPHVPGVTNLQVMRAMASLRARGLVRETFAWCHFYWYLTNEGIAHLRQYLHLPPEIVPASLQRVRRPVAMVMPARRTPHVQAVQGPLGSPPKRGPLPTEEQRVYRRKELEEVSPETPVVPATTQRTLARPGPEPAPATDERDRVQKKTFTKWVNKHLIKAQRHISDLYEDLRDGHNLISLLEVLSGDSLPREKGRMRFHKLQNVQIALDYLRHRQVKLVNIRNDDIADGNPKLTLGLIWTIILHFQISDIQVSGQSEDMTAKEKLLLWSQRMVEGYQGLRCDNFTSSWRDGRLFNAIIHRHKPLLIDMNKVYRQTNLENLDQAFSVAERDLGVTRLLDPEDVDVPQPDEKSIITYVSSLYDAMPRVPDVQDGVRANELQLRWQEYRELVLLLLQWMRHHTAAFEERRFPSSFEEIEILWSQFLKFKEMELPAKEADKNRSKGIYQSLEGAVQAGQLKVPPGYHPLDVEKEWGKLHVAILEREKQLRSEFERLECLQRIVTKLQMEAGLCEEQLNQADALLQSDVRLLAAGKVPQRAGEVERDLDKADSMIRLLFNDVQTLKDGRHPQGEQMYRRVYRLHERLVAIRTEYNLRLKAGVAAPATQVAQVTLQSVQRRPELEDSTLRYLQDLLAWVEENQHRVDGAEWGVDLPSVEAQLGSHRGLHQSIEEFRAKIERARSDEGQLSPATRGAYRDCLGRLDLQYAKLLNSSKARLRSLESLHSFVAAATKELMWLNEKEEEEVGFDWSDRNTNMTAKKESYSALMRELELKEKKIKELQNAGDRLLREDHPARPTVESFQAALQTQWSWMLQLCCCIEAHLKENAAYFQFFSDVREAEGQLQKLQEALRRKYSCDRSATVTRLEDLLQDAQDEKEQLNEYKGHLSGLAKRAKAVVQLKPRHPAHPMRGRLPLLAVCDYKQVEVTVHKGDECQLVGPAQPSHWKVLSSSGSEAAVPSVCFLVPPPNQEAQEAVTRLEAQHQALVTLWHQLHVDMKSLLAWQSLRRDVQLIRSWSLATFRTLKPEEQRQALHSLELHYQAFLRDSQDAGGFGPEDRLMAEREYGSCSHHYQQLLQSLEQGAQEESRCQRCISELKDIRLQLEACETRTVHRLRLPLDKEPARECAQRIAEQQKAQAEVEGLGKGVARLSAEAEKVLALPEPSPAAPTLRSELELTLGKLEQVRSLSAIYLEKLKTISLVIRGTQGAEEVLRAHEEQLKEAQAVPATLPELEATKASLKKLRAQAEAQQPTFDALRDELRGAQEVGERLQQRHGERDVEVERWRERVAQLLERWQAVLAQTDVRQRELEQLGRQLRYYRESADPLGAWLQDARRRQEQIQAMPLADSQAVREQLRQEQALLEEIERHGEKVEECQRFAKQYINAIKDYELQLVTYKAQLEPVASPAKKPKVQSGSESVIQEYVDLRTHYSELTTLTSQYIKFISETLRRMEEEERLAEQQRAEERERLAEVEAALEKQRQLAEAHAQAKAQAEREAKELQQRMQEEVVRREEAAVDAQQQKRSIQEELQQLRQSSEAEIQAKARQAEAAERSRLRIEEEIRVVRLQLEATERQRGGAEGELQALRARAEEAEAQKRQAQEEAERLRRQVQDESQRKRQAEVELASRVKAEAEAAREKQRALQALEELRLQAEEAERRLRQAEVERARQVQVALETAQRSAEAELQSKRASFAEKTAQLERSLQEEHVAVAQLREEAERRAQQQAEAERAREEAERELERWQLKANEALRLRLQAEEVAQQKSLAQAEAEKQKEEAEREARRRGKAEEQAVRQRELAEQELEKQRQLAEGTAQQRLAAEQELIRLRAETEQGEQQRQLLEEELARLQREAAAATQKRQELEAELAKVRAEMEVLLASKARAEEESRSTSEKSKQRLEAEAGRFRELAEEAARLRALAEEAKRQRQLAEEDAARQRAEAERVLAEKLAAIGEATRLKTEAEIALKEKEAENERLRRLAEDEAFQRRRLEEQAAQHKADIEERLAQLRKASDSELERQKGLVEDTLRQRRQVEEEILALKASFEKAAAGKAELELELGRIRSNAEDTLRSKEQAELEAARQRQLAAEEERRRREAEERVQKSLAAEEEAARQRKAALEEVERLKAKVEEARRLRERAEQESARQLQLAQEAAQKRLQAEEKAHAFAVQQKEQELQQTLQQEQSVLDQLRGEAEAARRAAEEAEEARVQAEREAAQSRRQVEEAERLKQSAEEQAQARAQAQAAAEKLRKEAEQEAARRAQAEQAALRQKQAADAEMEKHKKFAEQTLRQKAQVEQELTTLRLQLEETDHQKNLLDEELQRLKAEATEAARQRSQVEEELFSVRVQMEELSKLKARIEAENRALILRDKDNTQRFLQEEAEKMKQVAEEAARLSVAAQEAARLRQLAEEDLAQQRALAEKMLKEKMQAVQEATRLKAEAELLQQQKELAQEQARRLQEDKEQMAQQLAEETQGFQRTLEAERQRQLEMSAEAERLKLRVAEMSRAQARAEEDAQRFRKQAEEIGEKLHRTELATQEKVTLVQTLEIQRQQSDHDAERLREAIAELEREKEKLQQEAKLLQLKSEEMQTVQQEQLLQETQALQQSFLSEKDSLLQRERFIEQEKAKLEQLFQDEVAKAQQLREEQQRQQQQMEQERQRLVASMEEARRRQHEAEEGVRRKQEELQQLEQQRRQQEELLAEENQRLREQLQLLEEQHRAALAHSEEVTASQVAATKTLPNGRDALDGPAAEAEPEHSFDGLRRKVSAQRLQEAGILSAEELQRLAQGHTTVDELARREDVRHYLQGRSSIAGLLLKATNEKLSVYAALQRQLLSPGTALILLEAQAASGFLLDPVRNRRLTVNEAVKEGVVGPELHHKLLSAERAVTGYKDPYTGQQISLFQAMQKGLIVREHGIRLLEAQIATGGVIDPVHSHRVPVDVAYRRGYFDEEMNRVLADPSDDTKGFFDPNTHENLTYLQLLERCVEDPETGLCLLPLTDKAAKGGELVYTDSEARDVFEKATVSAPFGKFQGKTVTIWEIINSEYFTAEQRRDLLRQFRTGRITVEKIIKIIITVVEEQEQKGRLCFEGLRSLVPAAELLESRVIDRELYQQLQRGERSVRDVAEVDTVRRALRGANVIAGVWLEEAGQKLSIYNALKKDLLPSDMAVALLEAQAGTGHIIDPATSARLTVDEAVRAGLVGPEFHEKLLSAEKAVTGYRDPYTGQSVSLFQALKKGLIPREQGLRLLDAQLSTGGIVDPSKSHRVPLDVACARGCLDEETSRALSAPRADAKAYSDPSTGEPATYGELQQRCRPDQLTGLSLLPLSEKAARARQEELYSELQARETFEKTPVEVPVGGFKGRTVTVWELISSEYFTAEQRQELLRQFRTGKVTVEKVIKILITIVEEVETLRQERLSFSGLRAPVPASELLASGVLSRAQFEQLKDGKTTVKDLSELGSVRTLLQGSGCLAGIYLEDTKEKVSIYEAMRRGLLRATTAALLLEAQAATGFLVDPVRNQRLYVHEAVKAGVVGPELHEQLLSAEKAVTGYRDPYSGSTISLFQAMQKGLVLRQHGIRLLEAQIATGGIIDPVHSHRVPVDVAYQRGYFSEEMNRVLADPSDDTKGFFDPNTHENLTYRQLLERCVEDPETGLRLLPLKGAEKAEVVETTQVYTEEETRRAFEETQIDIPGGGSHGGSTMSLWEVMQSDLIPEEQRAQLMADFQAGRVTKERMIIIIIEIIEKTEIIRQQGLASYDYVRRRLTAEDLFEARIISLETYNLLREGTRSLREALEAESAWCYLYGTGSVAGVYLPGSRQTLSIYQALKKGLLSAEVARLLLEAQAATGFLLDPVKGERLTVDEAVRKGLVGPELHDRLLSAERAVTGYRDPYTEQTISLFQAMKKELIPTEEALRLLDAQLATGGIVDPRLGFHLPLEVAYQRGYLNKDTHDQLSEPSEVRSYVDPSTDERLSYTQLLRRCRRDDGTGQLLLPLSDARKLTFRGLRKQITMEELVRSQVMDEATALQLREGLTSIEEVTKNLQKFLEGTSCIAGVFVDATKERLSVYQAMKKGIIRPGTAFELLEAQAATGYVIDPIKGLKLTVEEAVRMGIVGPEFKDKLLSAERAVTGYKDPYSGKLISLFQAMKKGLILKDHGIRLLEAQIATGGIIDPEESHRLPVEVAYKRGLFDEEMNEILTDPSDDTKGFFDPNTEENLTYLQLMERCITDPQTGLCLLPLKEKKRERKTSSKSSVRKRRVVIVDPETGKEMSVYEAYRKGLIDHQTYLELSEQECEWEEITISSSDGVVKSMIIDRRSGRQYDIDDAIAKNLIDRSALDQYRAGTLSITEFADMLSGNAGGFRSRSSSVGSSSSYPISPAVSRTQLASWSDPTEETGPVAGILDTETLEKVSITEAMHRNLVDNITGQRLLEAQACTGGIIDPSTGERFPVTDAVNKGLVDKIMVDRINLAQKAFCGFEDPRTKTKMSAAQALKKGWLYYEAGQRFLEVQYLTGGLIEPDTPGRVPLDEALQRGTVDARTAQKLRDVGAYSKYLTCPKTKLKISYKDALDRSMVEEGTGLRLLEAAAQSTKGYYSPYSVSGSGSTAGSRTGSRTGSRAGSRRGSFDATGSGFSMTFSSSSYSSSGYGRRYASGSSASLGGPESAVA

Consider `COCCNCC(=O)N(CCCCN)CC(=O)N(CC(=O)N(CC(=O)N(CCCCN)CC(=O)NC(CCCCN)C(=O)N[C@H](CCCCN)C(=O)NC(CCSC)C(N)=O)C(C)c1ccccc1)Cc1ccc2c(c1)OCO2` (stereo partly shown) [PCS2] (H-[Nme][Nlys][Gly(N-piperonyl)][X1][Nlys][ξK][dK][ξM]-NH2), for which the “bound cells after plectin siRNA knockdown vs control siRNA” value at plectin (H358, H1693, H1975 and H1993 cells) was “dramatic decrease”. Further, on plectin (all cell lines tested), the “cells bound to PCS2-magnetic-beads in the presence of plectin antibody” value is “fewer cells bound”. Also, in the experiment with H358 cells (bound vs unbound fractions), the “binding of PCS2 beads to CSCs from H358 vs normal MSCs” value is “bound significantly higher on CSCs from H358 than normal MSCs”. Moreover, the “cells isolated (pull-down) from H358” value in the experiment on H358 cells (coated magnetic beads) is on record as 28-38%.
